# Experimental data: PubChem BioAssay AID651601 (Sanford-Burnham Center for Chemical Genomics, 2012)
# Legend:
# Test in all cases: antagonist selectivity across CCR6, CXCR5 and CXCR6 – cell-based, CHO-K1 PathHunter beta-arrestin, luminescence, selectivity assay for CXCR6 antagonist project, profiling panel (AID 651601)
# Conditions in all cases: antagonist mode
# [1] = target: C-X-C chemokine receptor type 5 (Homo sapiens) (UniProt P32302)
# [2] = target: C-C chemokine receptor type 6 (Homo sapiens) (UniProt P51684)
# C-C chemokine receptor type 6 (Homo sapiens), sequence (P51684 whole entry, looked up): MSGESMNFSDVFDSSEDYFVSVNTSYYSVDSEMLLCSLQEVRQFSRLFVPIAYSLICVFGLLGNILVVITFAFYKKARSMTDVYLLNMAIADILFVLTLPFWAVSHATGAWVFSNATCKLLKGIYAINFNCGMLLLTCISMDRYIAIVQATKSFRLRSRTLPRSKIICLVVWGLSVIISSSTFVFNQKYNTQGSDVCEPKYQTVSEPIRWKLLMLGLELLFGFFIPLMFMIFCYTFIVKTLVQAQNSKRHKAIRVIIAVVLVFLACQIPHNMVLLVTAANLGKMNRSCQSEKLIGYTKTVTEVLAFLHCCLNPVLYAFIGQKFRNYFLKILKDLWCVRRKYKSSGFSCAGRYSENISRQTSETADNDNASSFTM
# [3] = target: C-X-C chemokine receptor type 6 (Homo sapiens) (UniProt O00574)
# C-X-C chemokine receptor type 6 (Homo sapiens), sequence (O00574 whole entry, looked up): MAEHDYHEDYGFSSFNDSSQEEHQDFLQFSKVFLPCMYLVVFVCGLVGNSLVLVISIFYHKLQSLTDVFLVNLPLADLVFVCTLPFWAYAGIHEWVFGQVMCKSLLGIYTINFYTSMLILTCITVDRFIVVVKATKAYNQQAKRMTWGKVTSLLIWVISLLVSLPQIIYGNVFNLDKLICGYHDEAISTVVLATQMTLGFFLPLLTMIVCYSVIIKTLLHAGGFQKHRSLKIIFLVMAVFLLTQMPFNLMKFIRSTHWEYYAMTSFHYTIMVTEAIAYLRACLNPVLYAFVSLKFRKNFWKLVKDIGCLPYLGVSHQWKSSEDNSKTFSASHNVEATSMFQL
# [4] = CXCR5, mean of runs, mean IC50 across replicates
# [5] = CCR6, mean of runs, mean IC50 across replicates
# [6] = CXCR6, mean of runs, mean IC50 across replicates
# C-X-C chemokine receptor type 5 (Homo sapiens), sequence (P32302 whole entry, looked up): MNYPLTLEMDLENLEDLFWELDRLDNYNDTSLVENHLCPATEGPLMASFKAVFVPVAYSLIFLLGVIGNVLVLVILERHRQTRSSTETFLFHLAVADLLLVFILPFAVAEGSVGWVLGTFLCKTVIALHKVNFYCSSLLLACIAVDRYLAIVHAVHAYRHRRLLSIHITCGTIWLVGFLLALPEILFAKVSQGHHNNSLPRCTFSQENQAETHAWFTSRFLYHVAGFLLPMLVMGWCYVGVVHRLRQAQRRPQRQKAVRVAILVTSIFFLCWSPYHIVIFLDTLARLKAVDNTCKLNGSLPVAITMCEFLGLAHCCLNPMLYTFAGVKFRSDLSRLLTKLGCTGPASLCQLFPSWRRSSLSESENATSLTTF
"IC50 [1, 4] [µM]","IC50 ([1]; CXCR5, run 1) [µM]","IC50 ([1]; CXCR5, run 2) [µM]","IC50 [2, 5] [µM]","IC50 ([2]; CCR6, run 1) [µM]","IC50 ([2]; CCR6, run 2) [µM]","IC50 ([2]; CCR6, run 3) [µM]","IC50 ([2]; CCR6, run 4) [µM]","IC50 [3, 6] [µM]","IC50 ([3]; CXCR6, run 1) [µM]","IC50 ([3]; CXCR6, run 2) [µM]","IC50 ([3]; CXCR6, run 3) [µM]","IC50 ([3]; CXCR6, run 4) [µM]",Compound
> 66.6,> 66.6,> 66.6,> 80,> 80,> 80,> 80,> 80,> 80,> 80,> 80,> 80,> 80,COc1cccc(C(=O)NC2CC3CCCC(C2)N3CC(=O)Nc2ccc(N(C)C)cc2)c1 (stereo not drawn)
> 66.6,> 66.6,> 66.6,> 80,> 80,> 80,> 80,> 80,> 80,> 80,> 80,> 80,> 80,O=C(CN1C2CCCC1CC(NC(=O)c1ccccc1)C2)Nc1ccccc1C(F)(F)F (stereo not drawn)
> 66.6,> 66.6,> 66.6,> 80,> 80,> 80,> 80,> 80,> 80,> 80,> 80,> 80,> 80,O=C(CN1C2CCCC1CC(NC(=O)c1ccccc1)C2)Nc1ccccc1 (stereo not drawn)

# Second part, the molecule before the results:
Compound,"IC50 [1, 4] [µM]","IC50 ([1]; CXCR5, run 1) [µM]","IC50 ([1]; CXCR5, run 2) [µM]","IC50 [2, 5] [µM]","IC50 ([2]; CCR6, run 1) [µM]","IC50 ([2]; CCR6, run 2) [µM]","IC50 ([2]; CCR6, run 3) [µM]","IC50 ([2]; CCR6, run 4) [µM]","IC50 [3, 6] [µM]","IC50 ([3]; CXCR6, run 1) [µM]","IC50 ([3]; CXCR6, run 2) [µM]","IC50 ([3]; CXCR6, run 3) [µM]","IC50 ([3]; CXCR6, run 4) [µM]"
CN(C)c1ccc(NC(=O)CN2C3CCCC2CC(NC(=O)c2ccccc2)C3)cc1 (stereo not drawn),> 66.6,> 66.6,> 66.6,> 80,> 80,> 80,> 80,> 80,> 80,> 80,> 80,> 80,> 80
COc1cc(C(=O)NC2CC3CCCC(C2)N3CC(=O)Nc2ccccc2)cc(OC)c1OC (stereo not drawn),> 66.6,> 66.6,> 66.6,> 80,> 80,> 80,> 80,> 80,14.3,4.79,5.96,5.86,40.6
COc1cccc(C(=O)NC2CC3CCCC(C2)N3CC(=O)Nc2ccccc2C(F)(F)F)c1 (stereo not drawn),> 66.6,> 66.6,> 66.6,> 80,> 80,> 80,> 80,> 80,> 80,> 80,> 80,> 80,> 80
